Results published in PMC3187668 (Chemmedchem, 2011).

Molecular target: PI3Kα (Homo sapiens, UniProt P42336)
Assay: […]-ATP lipid kinase assay
Format: biochemical

Sequence of PI3Kα (P42336 whole entry): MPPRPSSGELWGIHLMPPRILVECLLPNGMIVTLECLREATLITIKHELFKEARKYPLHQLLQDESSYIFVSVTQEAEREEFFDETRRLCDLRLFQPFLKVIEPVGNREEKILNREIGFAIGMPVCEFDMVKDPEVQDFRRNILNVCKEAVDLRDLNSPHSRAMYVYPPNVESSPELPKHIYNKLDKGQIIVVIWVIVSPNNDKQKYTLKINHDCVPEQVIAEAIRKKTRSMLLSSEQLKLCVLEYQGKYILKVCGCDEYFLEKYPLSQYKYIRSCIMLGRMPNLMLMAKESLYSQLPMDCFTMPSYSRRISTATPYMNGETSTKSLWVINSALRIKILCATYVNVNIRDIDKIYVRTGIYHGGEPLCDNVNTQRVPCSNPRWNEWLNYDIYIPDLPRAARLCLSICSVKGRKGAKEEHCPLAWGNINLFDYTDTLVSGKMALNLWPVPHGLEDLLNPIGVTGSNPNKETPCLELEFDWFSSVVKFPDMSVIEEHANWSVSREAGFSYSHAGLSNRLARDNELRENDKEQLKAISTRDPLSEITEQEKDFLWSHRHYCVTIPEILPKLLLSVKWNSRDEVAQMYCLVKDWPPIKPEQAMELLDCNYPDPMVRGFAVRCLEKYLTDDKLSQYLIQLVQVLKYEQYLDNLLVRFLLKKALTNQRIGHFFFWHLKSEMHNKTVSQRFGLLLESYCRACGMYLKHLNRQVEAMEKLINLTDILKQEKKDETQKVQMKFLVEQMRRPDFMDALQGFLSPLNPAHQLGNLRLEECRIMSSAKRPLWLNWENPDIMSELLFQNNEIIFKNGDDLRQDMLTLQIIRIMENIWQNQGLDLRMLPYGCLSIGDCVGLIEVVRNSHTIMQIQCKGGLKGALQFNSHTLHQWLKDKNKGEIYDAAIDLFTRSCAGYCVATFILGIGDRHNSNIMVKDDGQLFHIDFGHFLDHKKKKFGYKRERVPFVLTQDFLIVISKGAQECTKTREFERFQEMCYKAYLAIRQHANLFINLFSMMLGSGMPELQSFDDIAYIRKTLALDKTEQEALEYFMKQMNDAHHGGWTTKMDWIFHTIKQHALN
Sequence of PI3Kα (P27986 2-724 partner): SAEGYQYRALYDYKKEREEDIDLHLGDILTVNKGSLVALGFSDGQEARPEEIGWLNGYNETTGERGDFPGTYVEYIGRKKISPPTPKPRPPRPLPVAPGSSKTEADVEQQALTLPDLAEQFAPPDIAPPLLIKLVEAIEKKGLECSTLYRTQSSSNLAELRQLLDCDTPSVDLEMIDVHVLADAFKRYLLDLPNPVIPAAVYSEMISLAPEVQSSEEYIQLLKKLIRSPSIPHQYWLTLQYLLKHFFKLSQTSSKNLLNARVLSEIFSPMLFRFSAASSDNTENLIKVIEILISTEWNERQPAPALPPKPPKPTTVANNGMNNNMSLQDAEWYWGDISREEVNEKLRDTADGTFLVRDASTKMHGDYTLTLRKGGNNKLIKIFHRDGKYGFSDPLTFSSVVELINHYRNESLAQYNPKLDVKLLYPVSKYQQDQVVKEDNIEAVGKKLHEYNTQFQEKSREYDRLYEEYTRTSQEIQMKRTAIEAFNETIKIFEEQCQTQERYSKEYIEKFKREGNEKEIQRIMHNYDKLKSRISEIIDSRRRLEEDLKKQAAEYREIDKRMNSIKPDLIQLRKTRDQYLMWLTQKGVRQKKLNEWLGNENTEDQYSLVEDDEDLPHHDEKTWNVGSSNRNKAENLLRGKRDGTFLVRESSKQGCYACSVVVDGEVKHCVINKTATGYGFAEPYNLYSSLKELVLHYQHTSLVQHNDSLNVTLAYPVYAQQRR

IC50: 3 nM
SMILES: O=C1NC(=S)SC1=Cc1ccc2nccnc2c1 [compound 19, 19]
